Test results reported in patent US3937820A, “Insulin composition providing alternatives to immunological resistance” (Hoechst Aktiengesellschaft, priority 1972, dated 1976).

Experiment: activity of the starting insulins in I.U./mg
Settings: starting insulin; crystallized insulin calculated on dry substance

| Substance | activity [I.U./mg] |
| --- | --- |
| crystallized insulin: pure crystallized complete insulin used as starting material | ≥ 25 |
| des-phenyl-alanine^B1 insulin [des-Phe^B1 insulin] | 25 |
